Reference: patent US20150031872A1, “METHOD FOR SCREENING ANTICANCER DRUGS, AND ANTICANCER DRUG THAT INDUCES CELL DEATH AND USES SUBSTANCE THAT INCREASES GRANZYME M ACTIVITY AS ACTIVE INGREDIENT” (LSIP, LLC, priority 2012, published 2015)
Peptide text beside a SMILES is read from it. * marks the point of attachment. CH2Cl = ClC*

Key:
[1] = target: T1, granzyme M in U937 cells (Homo sapiens, UniProt P51124); test: Granzyme M activity in extracted protein group (substrate, OD 405 nm); format: cell-based; settings: 5 μM AraC, 0 h, 3, 5 and 7 hours, FIG. 7
T1 construct: endogenous in cells; host or cells: U937, HL60
T1 sequence (P51124 26-257): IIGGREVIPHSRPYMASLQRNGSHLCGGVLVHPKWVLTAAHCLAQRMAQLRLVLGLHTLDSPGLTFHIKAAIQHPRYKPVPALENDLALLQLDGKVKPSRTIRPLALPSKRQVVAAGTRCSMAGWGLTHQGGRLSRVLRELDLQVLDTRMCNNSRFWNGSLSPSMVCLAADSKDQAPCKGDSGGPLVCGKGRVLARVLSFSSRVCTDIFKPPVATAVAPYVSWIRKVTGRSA
Description: (§1) At the same conditions (5 μM AraC) as Test Example 1, U937 cells, HL60 cells and KHYG-1 cells (positive control section) were cultured, cells were recovered from the culture medium immediately after culturing initiation (0 h), after 3 hours, after 5 hours and after 7 hours, and the protein groups were extracted from the cells.
(§2) To a measurement buffer (100 mM HEPES, 50 mM CaCl2, pH 7.4), 30 μg of protein group was introduced, and after adding substrate in an amount for a concentration of 200 μM, was incubated at 37° C. for 1 hour, and the absorbance at OD 405 nm was measured. It should be noted that the substrate was one synthesized by referencing Sami Mahrus, Walter Kisiel, and Charles S. Craik, Granzyme M is a regulatory protease that inactivates proteinase inhibitor 9, an endogenous inhibitor of granzyme B, J. Biol. Chem., 279, pp. 54275-54282, 2004. The vertical axis in FIG. 7 is an activity relative value for granzyme M calculated based on the absorbance.
Next, using protein groups arrived at by administering serine protease inhibitor (50 μM TPCK) to the culture medium, culturing U937 cells under the same conditions for 7 hours, and recovering, the absorbance was measured in the same way as above. The vertical axis in FIG. 3 is the activity relative value for granzyme M calculated based on the absorbance.

[2] = tested on: perforin in HL60 cells; test: Western blot, expression of perforin; format: cell-based, human; settings: 5 μM AraC, FIG. 6
Description: (§3) Using U937 cells, Colo201 cells (negative control) and KHYG-1 cells (positive control), which are human NK cells, 5 μM of AraC was added to the culture medium, and culturing was carried out. Immediately after culturing initiation (0 h), after 1 hour, after 3 hours and after 5 hours, cells were recovered from the cell medium, and protein groups were extracted from the cells. The amount of protein group was measured, and a certain amount of protein group was molecular weight fractionated by way of electrophoresis of a conventional method.
(§4) Except for the point of using HL60 cells and KHYG-1 cells (positive control section), the expression of granzyme M and perforin was examined at the same conditions as Test Example 3.

[3] = tested on: nucleophosmin (NPM) in HL60; test: Western blot of nucleophosmin (NPM) fragments; format: cell-based, human; settings: after AraC administration, FIG. 3A
Text: (§5) By the same method as FIG. 2C, protein groups extracted from the respective cells of U937, HL60 and Colo201 were molecular weight fractionated by way of electrophoresis of a conventional method, and the behavior of nucleophosmin (NPM), which is a cell survival factor (anti-apoptotic factor), was further investigated by the western blot method of a conventional method. It should be noted that monoclonal anti-GB23 (nucleophosmin/NPM) (catalog number B0556), which is an anti-NPM antibody, was purchased from Sigma-Aldrich (Saint Louis, Mo., USA).

[4] = tested on: nucleophosmin (NPM) in Colo201; test: Western blot of nucleophosmin (NPM) fragments; format: cell-based, human; settings: after AraC administration, FIG. 3A
Text: as §5

[5] = tested on: HL60 cells; test: Cell growth / viability, Cell Counting Kit 8 (WST-8); format: cell-based, human; settings: AraC 1, 5, 10 and 50 μm, 24 hours, FIG. 2A, p<0.01
Description: (§6) Using U937 cells and HL60 cells, which are human leukemia cells, and Colo201, which are human colon cancer cells (all purchased from cell bank), 3×10^3 of each cell were seeded in 96 well plates, and then cultured with 100 μl of RPMI cell medium (containing 10% fetal bovine serum (FBS), 2 mM L-glutamine, 100 units/ml penicillin, 100 μg/ml streptomycin, 250 ng/ml amphoterin B) per each well. At this time, AraC (cylocide) being used in the treatment of acute myelocytic leukemia by conventional pathology was added to the culture medium at the respective concentrations of 1, 5, 10 and 50 μm, and cultured under the conditions of 37° C. and 5% CO2 for 24 hours. Subsequently, 10 μl of WST-8 solution was placed per 1 well, and cultured at 37° C. for 4 hours.
(§7) The growth of cells was measured using a Cell Counting Kit 8 (Dojindo). This method is a measurement method establishing the dehydrogenase activity in viable cells as an index, and performs measurement of viable cell count based on WST-8 (2-(2-methoxy-4-nitrophenyl)-3-(4-nitrophenyl)-5-(2,4-disulfophenyl)-2H-tetrazolium, monosodium salt), which is a tetrazolium salt, being reduced to form formazan. More specifically, using a spectrophotometer Multiscan JX (Thermo Labsystems, Waltham, Mass.), the absorbance at 450 nm was measured, and the absorbance at 690 nm was used as the reference. The vertical axis in the graph of FIG. 2A represents the extent of cell viability by relative value.

[6] = tested on: U937 cells; test: as above; format: cell-based, human; settings: AraC 1, 5, 10 and 50 μm, 24 hours, FIG. 2A, p<0.01
Description: as §6, §7

[7] = tested on: Colo201; test: as above; format: cell-based, human; settings: AraC 1, 5, 10 and 50 μm, 24 hours, FIG. 2A
Description: as §6, §7

[8] = target: T2, granzyme M in HL60 cells (Homo sapiens, UniProt P51124); test: Granzyme M activity in extracted protein group (substrate, OD 405 nm); format: cell-based; settings: 5 μM AraC, 0 h, 3, 5 and 7 hours, FIG. 7
T2 construct: endogenous in cells; host or cells: U937, HL60
T2 sequence (P51124 26-257): T1 sequence (P51124 26-257)
Description: as §1, §2

[9] = tested on: granzyme M in U937 cells; test: Western blot, expression of granzyme M; format: cell-based, human; settings: 5 μM AraC, 0 h, 1, 3 and 5 hours, FIG. 4
Description: as §3
By way of western blot of a conventional method, the expression of granzyme M was detected. […] The expression of granzyme M in U937 cells, which are cancer cells, is a novel discovery that had not been known conventionally. […] It should be noted that GZMM Antibody (catalog number: AP6792c) by Abgent was used as the granzyme M antibody.

[10] = tested on: PARP and caspase-3 in U937 cells; test: Expression of apoptosis associated proteins after AraC; format: cell-based, human; settings: 5 μM AraC, 0 h, 3 hours, 6 hours, FIG. 2C
Description: Immediately after culturing start (0 h) under the administration of 5 μM of AraC, after 3 hours and after 6 hours, the expression of apoptosis associated proteins of U937 cells was measured.

[11] = tested on: perforin in U937 cells; test: Western blot, expression of perforin; format: cell-based, human; settings: 5 μM AraC, FIG. 5
Description: Using U937 cells, Colo201 cells (negative control) and KHYG-1 cells (positive control), which are human NK cells, 5 μM of AraC was added to the culture medium, and culturing was carried out. Immediately after culturing initiation (0 h), after 1 hour, after 3 hours and after 5 hours, cells were recovered from the cell medium, and protein groups were extracted from the cells. The amount of protein group was measured, and a certain amount of protein group was molecular weight fractionated by way of electrophoresis of a conventional method. The expression of perforin was detected by way of western blot of a conventional method. […] It should be noted that Mouse Anti-Human Perforin, Monoclonal Antibody (catalog number: 3465-6-250) by Mabtech was used as the perforin antibody.

[12] = tested on: nucleophosmin (NPM) in U937; test: Western blot of nucleophosmin (NPM) fragments; format: cell-based, human
Text: as §5
NPM fragments were recovered by the immunoprecipitation method, and the N-terminal amino acids at the cleavage site of NPM were analyzed to carry out identification of the protease participating in the cleavage of NPM. It should be noted that “LC” in FIG. 3B is a light chain of the antibody used in immunoprecipitation.

[13] = tested on: granzyme M in HL60 cells; test: Western blot, expression of granzyme M; format: cell-based, human; settings: 5 μM AraC, FIG. 6
Description: as §3, §4

[14] = target: T3, granzyme M in Hela cells (Homo sapiens, UniProt P51124); test: Granzyme M activity in extracted protein group (substrate, OD 405 nm); format: cell-based; settings: CDDP 50 μM, 24 hours culture, incubation 10 min, 8 hr (P<0.05), 21 hr (P<0.01) vs. control, FIG. 11
T3 construct: endogenous in cells; host or cells: Hela
T3 sequence (P51124 26-257): T1 sequence (P51124 26-257)
Description: as §2
Using Hela cells, which are human solid carcinoma cells, the action causing granzyme M activity of CDDP 50 μM conventionally used as a curative drug for solid carcinoma was investigated by culturing Hela cells for 24 hours at the same conditions as Test Example 5. The vertical axis in FIG. 11 is the activity relative value for granzyme M calculated based on the absorbance, and on the horizontal axis are test groups having incubation times of “10 min”, “8 hr” (8 hours) and “21 hr” (21 hours), in which “control” is the substrate without CDDP, and “CDDP” is the substrate and CDDP addition.

[15] = tested on: U937 cells; test: Viable cell count by tryptan blue method; format: cell-based, human; settings: inhibitor alone 0.75 mg/ml, 14 hours
Description: […] To 48 well plates, 5×10^5 of each cell (U937 cells and HL60 cells) were seeded, and culturing was initiated with 200 μl of culture medium per well. Fourteen hours after culturing initiation, the number of viable cells was measured by the tryptan blue method (mixing a cell suspension and tryptan blue solution in 1:1, placing in a hemocytometer, and counting the number of cells using an optical microscope). It should be noted that Ac-KVPL-CMK was synthesized based on the tertiary structure of granzyme M (L. Wu et. al., Structural basis for proteolytic specificity of the human apoptosis-inducing granzyme M, J. Immunol., 2009; 183: 421-429).

[16] = tested on: HL60 cells; test: Viable cell count by tryptan blue method; format: cell-based, human; settings: inhibitor alone 0.75 mg/ml, 14 hours
Description: Ac-KVPL-CMK, which is an inhibitor specific to granzyme M, was added to the culture medium (5 μM AraC) in an amount making a final concentration of 0.75 mg/ml, and then pre-incubated. To 48 well plates, 5×10^5 of each cell (U937 cells and HL60 cells) were seeded, and culturing was initiated with 200 μl of culture medium per well. Fourteen hours after culturing initiation, the number of viable cells was measured by the tryptan blue method (mixing a cell suspension and tryptan blue solution in 1:1, placing in a hemocytometer, and counting the number of cells using an optical microscope). It should be noted that Ac-KVPL-CMK was synthesized based on the tertiary structure of granzyme M (L. Wu et. al., Structural basis for proteolytic specificity of the human apoptosis-inducing granzyme M, J. Immunol., 2009; 183: 421-429).

## Nc1ccn([C@@H]2O[C@H](CO)[C@@H](O)[C@@H]2O)c(=O)n1 [AraC]
[1]
  activity of granzyme M (relative value): increases along with the elapse of time
[2]
  expression of perforin: not recognized
[3]
  fragments of NPM: detected along with the elapse of time
[4]
  fragments of NPM: not detected
[5]
  cell death (cell viability, relative value): concentration dependently induced
[6]
  cell death (cell viability, relative value): concentration dependently induced
[7]
  cell death (cell viability, relative value): not induced
[8]
  activity of granzyme M (relative value): increases along with the elapse of time
[9]
  expression level of granzyme M: unrelated to the elapse of AraC administration time
[10]
  PARP decomposition: decomposed along with the elapse of time
  caspase-3 decomposition: decomposed along with the elapse of time
[11]
  expression of perforin: not induced
[12]; NPM fragments recovered by immunoprecipitation after AraC administration, FIG. 3B
  cleavage site of NPM fragment (N-terminal amino acid sequence AAED): cleaved by Leu-158 of NPM
[12]; U937, after AraC administration, FIG. 3A
  fragments of NPM: detected along with the elapse of time
[13]
  expression level of granzyme M: tendency of the expression level being exacerbated depending on the time elapsed

## [NH2][Pt]([NH2])([Cl])[Cl] [CDDP, cisplatin]
[14]
  activity of granzyme M (relative value): increased with the elapse of time

## CC(=O)N[C@@H](CCCCN)C(=O)N[C@H](C(=O)N1CCC[C@H]1C(=O)N[C@@H](CC(C)C)C(=O)CCl)C(C)C [granzyme M-specific inhibitor, Ac-KVPL-CMK] (Ac-KVPL-CH2Cl)
[15]
  viable cell count, sole administration vs. control group: significant difference in viable cell count was not confirmed
[16]
  viable cell count, sole administration vs. control group: significant difference in viable cell count was not confirmed
